The text below walks through data of BindingDB's records for patent US20240246935 (Plexium, Inc., 2024).

The structures appear in SMILES notation.

The target in this test is Protein cereblon (Homo sapiens, UniProt Q96SW2). Kind of test: Cereblon (CRBN) Target Engagement. The protocol: Cereblon target engagement was monitored by Bioluminescence Resonance Energy Transfer (BRET) in transfected HEK-293T cells using the NanoBRET TE Intracellular E3 Ligase Assay (Promega). Briefly, 384-well plates (white opaque plates, Corning 3574, low binding surface) were seeded with transfected HEK-293T cells (38 uL/well). 2 uL of 10 uM CRBN tracer (diluted 1:5 in Tracer Dilution Buffer) was added to each well. Plates were centrifuged at 320 g for 1 min at room temperature. Test compounds were added in a 11-point dilution series (typically […]) using a TECAN D300e Digital Dispenser. Plates were shaken for 2 minutes on a microplate shaker to mix compounds. Plates were centrifuged at 320 g for 1 min at room temperature, and subsequently incubated for 2 hours at 37 C.After incubation, plates were allowed to cool to room temperature for 15 minutes. 20 uL of 3 Complete NanoBRET Nano-Glo Substrate plus Inhibitor Solution (Promega, 1:166 Substrate and 1:500 dilution of Extracellular NanoLuc Inhibitor diluted in Opti-MEM) were added to each well. Plates were incubated with shaking at room temperature for 3 minutes covered with foil. Plates were read on a CLARIOstar microplate reader (BMG LabTech), measuring at 450 nm (donor emission) and 610 nm (acceptor emission). The IC50 values were determined by regression to best fit four-parameter logistic curves using GraphPad Prism.
Protein cereblon, sequence (Q96SW2 whole entry): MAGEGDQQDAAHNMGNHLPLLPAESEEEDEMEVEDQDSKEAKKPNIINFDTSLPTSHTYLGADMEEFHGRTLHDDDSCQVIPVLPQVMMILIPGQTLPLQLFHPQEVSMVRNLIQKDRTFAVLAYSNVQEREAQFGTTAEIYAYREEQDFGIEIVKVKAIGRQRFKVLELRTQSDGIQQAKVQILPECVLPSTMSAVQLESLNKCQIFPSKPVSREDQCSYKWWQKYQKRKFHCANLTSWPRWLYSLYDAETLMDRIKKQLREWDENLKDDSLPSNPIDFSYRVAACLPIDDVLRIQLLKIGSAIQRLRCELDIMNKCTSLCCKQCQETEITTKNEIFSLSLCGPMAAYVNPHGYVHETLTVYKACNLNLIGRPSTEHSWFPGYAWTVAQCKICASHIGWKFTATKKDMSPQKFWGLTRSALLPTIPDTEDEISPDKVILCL
The compound `O=C1CCC(N2Cc3cc(O[C@H]4CCC[C@@H]4N4CC(c5cccc(F)c5)C4)ccc3C2=O)C(=O)N1` (some centres not stated) [US20240246935, Example 88] registered a half-maximal effective concentration (EC50) of 30.2 nM.
To `O=C1NC(=O)C2(N3Cc4cc(O[C@H]5CCC[C@@H]5N5CC(c6ccc(F)cc6Cl)C5)ccc4C3=O)CC1C2` [US20240246935, Example 86] belongs above 10000 nM; to `O=C1NC(=O)C2(N3Cc4cc(O[C@H]5CCCC[C@@H]5N5CC(c6cccc(F)c6)C5)ccc4C3=O)CC1C2` [US20240246935, Example 89], 6810 nM; to `O=C1NC(=O)C2(N3Cc4cc(O[C@H]5CCC[C@@H]5N5CC(c6cccc(F)c6)C5)ccc4C3=O)CC1C2` [US20240246935, Example 87], above 10000 nM.
As for `O=C1NC(=O)C2(N3Cc4cc(O[C@H]5CCC[C@@H]5N5CCC(c6ccccc6)C5)ccc4C3=O)CC1C2` (some centres not stated) [US20240246935, Example 107], the half-maximal effective concentration (EC50) is above 10000 nM.
Regarding `O=C1CCC(N2Cc3cc(O[C@H]4CCC[C@@H]4N4CC(c5ccc(F)cc5Cl)C4)ccc3C2=O)C(=O)N1` (some centres not stated) [US20240246935, Example 104], a half-maximal response (EC50) required 18 nM.
To `O=C1CCC(N2Cc3cc(O[C@H]4CCCC[C@@H]4N4CC(c5ccc(F)cc5Cl)C4)ccc3C2=O)C(=O)N1` (some centres not stated) [US20240246935, Example 103] belongs 15 nM.

As a reminder, the EC50 is the concentration needed to bring the measured effect to its halfway point. High values mean a need for much substance, low ones an effect from little substance.
